Reference: US20090163528A1, “Pharmaceutical composition having analgesic effects” (priority 2004, published 2009)
Like-named read-outs stand apart in the source and are kept apart here.

Legend:
Assay type in all cases: in vivo
Kunming breed mice [1] = experiment: Body twisting test, intramuscular injection of fuziline (Test 8); details: 200 mg/kg ig.
Kunming breed mice [2] = experiment: Body twisting test, mixtures of fuziline, benzoylmesaconitine, mesaconitine and hypaconitine in different proportions (Test 4); details: aspirin 200 mg/kg stomach perfusion
Protocol: Enteric coated aspirin tablet, white, 25 mg/pill, supplied by Xuzhou Enhua Pharmaceuticals Co., Ltd, batch No.: 20050312; take 4 pills of enteric coated aspirin tablet; grind and add with distilled water up to 10 ml to compound 10 mg/ml of solution composed of aspirin;
Divide at random the 70 Kunming breed mice, weighing 18-22 g, into 7 groups with equal number of each gender and each group, with the first group as the negative control group and the second group as the positive control group; perfuse the stomach of the first group mice with 0.2 ml/10 g of 10% alcohol; perfuse the stomach of the second group mice with 200 mg/kg (20 times the practice dose) of aspirin; the 3rd, 4th, 5th, 6th and 7th group are groups in five different proportions of […], benzoylmesaconitine, mesaconitine and hypaconitine; perfuse the groups with solution in five different proportions of […], benzoylmesaconitine, mesaconitine and hypaconitine; […]; inject into the stomach cavity of the mice with 0.2 ml of 0.6% glacial acetic acid 30 minutes after administration; observe the number of body twisting of each mouse 5 to 10 minutes after the injection of acetic acid; make statistical analysis of the data to calculate the increasing rate of pain threshold and the standard deviation of each group; compare the intergroup differences between each drug group and the negative control group with t-test.

Kunming breed mice [3] = experiment: Body twisting test, mixtures of fuziline and hypaconitine in different proportions (Test 6); details: aspirin 200 mg/kg stomach perfusion
Kunming breed mice [4] = experiment: Body twisting test, mixtures of fuziline and benzoylmesaconitine in different proportions (Test 7); details: aspirin 200 mg/kg stomach perfusion
Kunming breed mice [5] = details: 200 mg/kg stomach perfusion
Kunming breed mice [6] = details: aspirin 200 mg/kg stomach perfusion
Kunming breed mice [7] = experiment: Body twisting test, skin administration of fuziline (Test 9); details: 200 mg/kg ig.; acetic acid 30 minutes after
Protocol: Divide randomly the 40 Kunming breed mice, weighing 18-22 g, into 4 groups with equal number of each gender and each group. […] The first group is the negative control group. Smear an even layer of Vaseline plaster 0.1 g/piece onto the hair-disposed area of the of negative control group mice, covered lightly with a piece of gauze (1.5 cm×1.5 cm). The second group, as the positive control group is given stomach perfusion with 200 mg/kg of aspirin (20 times the practice use). […] Except that the mice of the second group are injected into the stomach cavity with 0.6% glacial acetic acid solution 30 minutes after the smearing, the mice of all other groups are injected into the stomach cavity with 0.6% glacial acetic acid solution 1.5 hours after the smearing; observe the number of body twisting of each mouse 5 to 10 minutes after the injection; make statistical analysis of the data to calculate the increasing rate of pain threshold and the standard deviation of each group; compare the intergroup differences between each drug group and the negative control group with t-test.

CC(=O)Oc1ccccc1C(=O)O [Aspirin, aspirin]
Body twisting number ( x ± SD) (Kunming breed mice [1]): 5.1 ± 6.0
Pain suppression rate (Kunming breed mice [1]): 81.6%
Body twisting number ( x ± SD) (Kunming breed mice [2]): 3.3 ± 3.2
Pain suppression rate (Kunming breed mice [2]): 88.0%
Body twisting number ( x ± SD) (Kunming breed mice [3]): 3.1 ± 3.3
Pain suppression rate (Kunming breed mice [3]): 82.7%
Body twisting number ( x ± SD) (Kunming breed mice [4]): 3.1 ± 3.3
Pain suppression rate (Kunming breed mice [4]): 82.7%
Body twisting number ( χ ± SD) (Kunming breed mice [5]; Table 2): 3.1 ± 3.3
Pain suppression rate (Kunming breed mice [5]; Table 2): 90.96%
Body twisting number ( χ ± SD) (Kunming breed mice [5]; Table 3): 3.1 ± 3.2
Pain suppression rate (Kunming breed mice [5]; Table 3): 92.11%
Body twisting number ( x ± SD) (Kunming breed mice [6]): 3.0 ± 3.3
Pain suppression rate (Kunming breed mice [6]): 82.7%
Body twisting number ( x ± SD) (Kunming breed mice [7]): 5.1 ± 6.0
Pain suppression rate (Kunming breed mice [7]): 81.6%
